# Data from patent publication US7208511B2, “Microbicidal composition” (Rohm and Haas Company, priority 2003, dated 2007).
# How the values were obtained:
# [1] = tested on: Mixed Bacteria; test: Speed of Kill test in TSB; type: cell-based; conditions: for Minimum Effective Concentration ALONE: 5-log reduction criteria, no end point measured, value is 2× the highest level tested (Lazonby)
# Text: (§1) One measure of synergism is the industrially accepted method described by Kull, F. C.; Eisman, P. C.; Sylwestrowicz, H. D. and Mayer, R. L., in Applied Microbiology 9:538–541 (1961), using the ratio determined by the formula: Qa/QA+Qb/QB=Synergy Index (“SI”) wherein: • QA=concentration of compound A (first component) in ppm, acting alone, which produced an end point (MIC of Compound A). • Qa=concentration of compound A in ppm, in the mixture, which produced an end point. • QB=concentration of compound B (second component) in ppm, acting alone, which produced an end point (MIC of Compound B). • Qb=concentration of compound B in ppm, in the mixture, which produced an end point.
# (§2) When the sum of Qa/QA and Qb/QB is greater than one, antagonism is indicated. […] The lower the SI, the greater the synergy shown by that particular mixture. The minimum inhibitory concentration (MIC) of a microbicide is the lowest concentration tested under a specific set of conditions that prevents the growth of added microorganisms.
# To evaluate “Speed of Kill” an aliquot of 30 g of pH 8 TSB was dispensed in sterile 2 oz (60 mL) jars. Biocides stock solution was added into each jar to achieve the final concentration. The test samples were inoculated with 0.3 ml of mixed bacterial inoculum (resulting in 10^6/ml bacteria per ml of test solution). Samples were then placed in a shaker water bath at 30° C. Bacterial growth was monitored via the microtiter MPN method using the BECKMAN AUTOMATIC 2000 Workstation after 30 min, 1, 4, 24, 48, 72 hours and again 6–7 days contact time. The microtiter plates were incubated at 30° C. for 2 days.
# (§3) In each test, First Component (A) was MI and the Second Component (B) was DBNPA. “NG” means that no growth was observed.
# [2] = tested on: Mixed Bacteria; test: Minimum Inhibitory Concentration (MIC) synergy test, microtiter plate; type: cell-based; conditions: after 24 hours at 30° C.
# Text: as §1, §2
# Synergy tests were conducted using standard microtiter plate assays with media designed for optimal growth of the test microorganism. […] High resolution MICs were determined by adding varying amounts of microbicide to one column of a microtitre plate and doing subsequent ten-fold dilutions using an automated liquid handling system to obtain a series of endpoints ranging from 2 ppm to 10,000 ppm active ingredient. The combinations of the present invention were tested against three bacteria, Pseudomonas aeruginosa (P. aeruginosa —ATCC #15442), Enterobacter aerogenes (ATCC #13048), and Kiebsiella pneumoniae (ATCC #13883). The bacteria were used at a concentration of about 10^8 bacteria per mL. These microorganisms are representative of natural contaminants in many consumer and industrial applications. The plates were visually evaluated for microbial growth (turbidity) to determine the MIC after various incubation times at 30° C.
# as §3
smiles,measurement,setting,value
"Cn1sccc1=O [MI, 2-methyl-4-isothiazolin-3-one]",Minimum Effective Concentration ALONE,[1]; 24 hr,300 ppm AI
same,Minimum Effective Concentration ALONE,[1]; 48 hr,300 ppm AI
same,Minimum Effective Concentration ALONE,[1]; 72 hr,300 ppm AI
same,CFU/ml Bacteria Log Reduction vs Control,"[1]; MI 25 ppm AI alone, 30 min @ 30° C.",−0.3 log
same,CFU/ml Bacteria Log Reduction vs Control,"[1]; MI 25 ppm AI alone, 1 hr @ 30° C.",0.0 log
same,CFU/ml Bacteria Log Reduction vs Control,"[1]; MI 25 ppm AI alone, 4 hr @ 30° C.",0.2 log
same,CFU/ml Bacteria Log Reduction vs Control,"[1]; MI 25 ppm AI alone, 24 hr @ 30° C.",−1.3 log
same,CFU/ml Bacteria Log Reduction vs Control,"[1]; MI 25 ppm AI alone, 48 hr @ 30° C.",−2.0 log
same,CFU/ml Bacteria Log Reduction vs Control,"[1]; MI 50 ppm AI alone, 30 min @ 30° C.",0.4 log
same,CFU/ml Bacteria Log Reduction vs Control,"[1]; MI 50 ppm AI alone, 1 hr @ 30° C.",0.2 log
same,CFU/ml Bacteria Log Reduction vs Control,"[1]; MI 50 ppm AI alone, 4 hr @ 30° C.",0.4 log
same,CFU/ml Bacteria Log Reduction vs Control,"[1]; MI 50 ppm AI alone, 24 hr @ 30° C.",−0.6 log
same,CFU/ml Bacteria Log Reduction vs Control,"[1]; MI 50 ppm AI alone, 48 hr @ 30° C.",−1.6 log
same,CFU/ml Bacteria Log Reduction vs Control,"[1]; MI 75 ppm AI alone, 30 min @ 30° C.",0.2 log
same,CFU/ml Bacteria Log Reduction vs Control,"[1]; MI 75 ppm AI alone, 1 hr @ 30° C.",0.2 log
same,CFU/ml Bacteria Log Reduction vs Control,"[1]; MI 75 ppm AI alone, 4 hr @ 30° C.",−0.3 log
same,CFU/ml Bacteria Log Reduction vs Control,"[1]; MI 75 ppm AI alone, 24 hr @ 30° C.",0.2 log
same,CFU/ml Bacteria Log Reduction vs Control,"[1]; MI 75 ppm AI alone, 48 hr @ 30° C.",−2.0 log
same,CFU/ml Bacteria Log Reduction vs Control,"[1]; MI 100 ppm AI alone, 168 @ 30° C.",−2.8 log
same,CFU/ml Bacteria Log Reduction vs Control,"[1]; MI 100 ppm AI alone, 30 min @ 30° C.",0.4 log
same,CFU/ml Bacteria Log Reduction vs Control,"[1]; MI 100 ppm AI alone, 1 hr @ 30° C.",0.6 log
same,CFU/ml Bacteria Log Reduction vs Control,"[1]; MI 100 ppm AI alone, 4 hr @ 30° C.",0.2 log
same,CFU/ml Bacteria Log Reduction vs Control,"[1]; MI 100 ppm AI alone, 24 hr @ 30° C.",0.8 log
same,CFU/ml Bacteria Log Reduction vs Control,"[1]; MI 100 ppm AI alone, 48 hr @ 30° C.",1.7 log
same,CFU/ml Bacteria Log Reduction vs Control,"[1]; MI 100 ppm AI alone, 72 hr @ 30° C.",0.0 log
same,CFU/ml Bacteria Log Reduction vs Control,"[1]; MI 150 ppm AI alone, 168 @ 30° C.",−2.0 log
same,CFU/ml Bacteria Log Reduction vs Control,"[1]; MI 150 ppm AI alone, 30 min @ 30° C.",0.6 log
same,CFU/ml Bacteria Log Reduction vs Control,"[1]; MI 150 ppm AI alone, 1 hr @ 30° C.",0.2 log
same,CFU/ml Bacteria Log Reduction vs Control,"[1]; MI 150 ppm AI alone, 4 hr @ 30° C.",0.0 log
same,CFU/ml Bacteria Log Reduction vs Control,"[1]; MI 150 ppm AI alone, 24 hr @ 30° C.",−0.2 log
same,CFU/ml Bacteria Log Reduction vs Control,"[1]; MI 150 ppm AI alone, 48 hr @ 30° C.",1.7 log
same,CFU/ml Bacteria Log Reduction vs Control,"[1]; MI 150 ppm AI alone, 72 hr @ 30° C.",0.4 log
same,MIC Values ALONE,[2]; 1/10 TSB,38 ppm AI
same,MIC Values ALONE,[2]; M9G + 0.1% yeast extract,38 ppm AI
"N#CC(Br)(Br)C(N)=O [DBNPA, 2,2-dibromo-3-nitrilopropionamide]",Minimum Effective Concentration ALONE,[1]; 24 hr,46 ppm AI
same,Minimum Effective Concentration ALONE,[1]; 48 hr,46 ppm AI
same,Minimum Effective Concentration ALONE,[1]; 72 hr,46 ppm AI
same,CFU/ml Bacteria Log Reduction vs Control,"[1]; DBNPA 1 ppm AI alone, 30 min @ 30° C.",0.6 log
same,CFU/ml Bacteria Log Reduction vs Control,"[1]; DBNPA 1 ppm AI alone, 1 hr @ 30° C.",−0.6 log
same,CFU/ml Bacteria Log Reduction vs Control,"[1]; DBNPA 1 ppm AI alone, 4 hr @ 30° C.",−1.0 log
same,CFU/ml Bacteria Log Reduction vs Control,"[1]; DBNPA 1 ppm AI alone, 24 hr @ 30° C.",−2.6 log
same,CFU/ml Bacteria Log Reduction vs Control,"[1]; DBNPA 2 ppm AI alone, 30 min @ 30° C.",−0.1 log
same,CFU/ml Bacteria Log Reduction vs Control,"[1]; DBNPA 2 ppm AI alone, 1 hr @ 30° C.",−0.3 log
same,CFU/ml Bacteria Log Reduction vs Control,"[1]; DBNPA 2 ppm AI alone, 4 hr @ 30° C.",−0.8 log
same,CFU/ml Bacteria Log Reduction vs Control,"[1]; DBNPA 2 ppm AI alone, 24 hr @ 30° C.",−1.4 log
same,CFU/ml Bacteria Log Reduction vs Control,"[1]; DBNPA 5 ppm AI alone, 30 min @ 30° C.",0.4 log
same,CFU/ml Bacteria Log Reduction vs Control,"[1]; DBNPA 5 ppm AI alone, 1 hr @ 30° C.",−0.3 log
same,CFU/ml Bacteria Log Reduction vs Control,"[1]; DBNPA 5 ppm AI alone, 4 hr @ 30° C.",−0.8 log
same,CFU/ml Bacteria Log Reduction vs Control,"[1]; DBNPA 5 ppm AI alone, 24 hr @ 30° C.",−1.6 log
same,CFU/ml Bacteria Log Reduction vs Control,"[1]; DBNPA 9 ppm AI alone, 30 min @ 30° C.",0.4 log
same,CFU/ml Bacteria Log Reduction vs Control,"[1]; DBNPA 9 ppm AI alone, 1 hr @ 30° C.",0.0 log
same,CFU/ml Bacteria Log Reduction vs Control,"[1]; DBNPA 9 ppm AI alone, 4 hr @ 30° C.",−1.0 log
same,CFU/ml Bacteria Log Reduction vs Control,"[1]; DBNPA 9 ppm AI alone, 24 hr @ 30° C.",−2.0 log
same,CFU/ml Bacteria Log Reduction vs Control,"[1]; DBNPA 23 ppm AI alone, 30 min @ 30° C.",0.4 log
same,CFU/ml Bacteria Log Reduction vs Control,"[1]; DBNPA 23 ppm AI alone, 1 hr @ 30° C.",0.2 log
same,CFU/ml Bacteria Log Reduction vs Control,"[1]; DBNPA 23 ppm AI alone, 4 hr @ 30° C.",−1.0 log
same,CFU/ml Bacteria Log Reduction vs Control,"[1]; DBNPA 23 ppm AI alone, 24 hr @ 30° C.",−1.4 log
same,MIC Values ALONE,[2]; 1/10 TSB,45 ppm AI
same,MIC Values ALONE,[2]; M9G + 0.1% yeast extract,45 ppm AI
